Measurements: publication PMC6923474 (Scientific Reports, 2019)
Entries after “also recorded” stand apart in the source; their conditions may differ. Where two headings read alike, the source gives them in different places.

What was measured:
NMDARs = details: cited from earlier work
NMDA receptors (NMDARs) = assay: Whole-cell patch-clamp of NMDA-activated currents in primary cultures of cortical neurons; assay type: cell-based, rat
Experimental: All manipulations on animals were performed in accordance with the guide of the Federation for Laboratory Animal Science Associations and were approved by the Animal Care and Use Committees of Sechenov Institute. Briefly, 16 days pregnant Wistar rats (14 female rats used in this study, supplied by the Sechenov Institute Animal Facility) were placed in a plastic box connected to a CO2 tank by a tube and then sacrificed by 1 min CO2 inhalation. Fetuses were removed and then primary cultures of rat cortical neurons were prepared using conventional procedures as described earlier[27],[66]. Neurons were grown in Neurobasal culture medium supplemented with B-27 (Gibco-Invitrogen, UK) on glass coverslips coated with poly-D-lysine and were used for experiments after 10–15 days in culture[66],[67].
Whole-cell currents were recorded from cultured rat cortical neurons using a MultiClamp 700B patch-clamp amplifier with Digidata 1440 A controlled by pClamp v10.2 software (Molecular Devices). Recordings were 8-order low-pass filtered at 200 Hz and the acquisition rate was 20000 samples per second. Solution exchange was performed by means of a fast solution application system as described earlier. Unless otherwise specified, the external bathing solution contained (in mM): 140 NaCl; 2.8 KCl; 1.0 CaCl2; 10 HEPES, at pH 7.2–7.4, osmolarity 310 mOsm. The intrapipette solution contained (in mM): 120 CsF, 10 CsCl, 10 EGTA, and 10 HEPES, osmolarity 300 mOsm[14], with pH adjusted to 7.4 with CsOH. Patch pipettes of 2–4 MΩ were pulled from Sutter BF150-89-10 borosilicate capillaries. Experiments were performed at 23–25 °C. Under control conditions, neurons were voltage clamped at −70 mV. Data are reported without corrections for liquid junction potential, which was measured as −11 mV. To activate NMDARs, 100 µM NMDA and 30 µM glycine were co-applied. Some experiments were performed on neurons loaded with BAPTA. To load BAPTA, cortical neuron cultures were incubated in bathing solution containing 10 µM BAPTA-AM for 2 hours.
Whole-cell membrane currents activated by NMDA were measured at steady state. The fraction of blocked current was calculated as 1 − Ib/Ic, where Ic is the amplitude of current activated by agonists and Ib is the amplitude of current activated by agonists in the presence of blocker.
Amplitudes of currents measured in the presence of blocker were normalized to maximal current response in control (Ic). […]
The obtained values were fitted with the Woodhull equation[36]:6 IC50(Vm)=IC50(0mV)⋅exp(VmzδF/RT) where IC50(0 mV) and δ were set as free parameters. […] For Faraday constant, gas constant and room temperature of 25 °C the RT/F ≈ 25.7 mV.
The rise time of currents activated by the testing NMDA + Gly application in trapping channel block experiments was fit in ClampFit (pClamp, Axon Instruments) using the double exponential function:7 I=I1·exp(−t/τ1)+I2⋅exp(−t/τ2)−C where I1 and I2 are amplitudes of the exponential and τ1 and τ2 are time constants of the exponential and C equals I1 + I2 + Ib.

[1] = cited from earlier work
GluN1/GluN2A NMDARs = system: GluN1/GluN2A NMDARs; set-up: method as in PMID 28877967; details: Ca2+-dependent manner; not GluN1/GluN2B receptors; cited from earlier work

## CN(C)CCC=C1c2ccccc2CCc2ccccc21 [ATL, amitriptyline]
NMDARs
  ATL concentrations required for the NMDAR channel block: 15 to 60 µM
NMDA receptors (NMDARs)
  concentrations showing voltage-dependent open-channel block of NMDARs: > 70 µM
  decrease of IC50 per 1 mM increase of external [Ca2+]: roughly 5 fold
NMDA receptors (NMDARs); 10 μM ATL, 1 mM Ca2+, −70 mV vs −30 mV
  voltage dependence of block of NMDAR currents: voltage dependence was not observed; also recorded: voltage-independent
NMDA receptors (NMDARs); 10 μM ATL, −70 mV, 2 mM vs 0.25 mM Ca2+
  Ca2+ dependence of inhibition of NMDAR currents: far more pronounced in 2 mM Ca^2+- than in 0.25 Ca^2+- containing media
NMDA receptors (NMDARs); 20 μM ATL, 2 mM Ca2+, −40 mV to +40 mV
  voltage dependence of block of NMDAR currents: did not find any voltage dependence
NMDA receptors (NMDARs); 100 μM ATL, 0.25 mM or 2 mM Ca2+, −70 mV
  effect on closed NMDARs (ATL applied prior to NMDA): did not significantly affect currents activated by NMDA
NMDA receptors (NMDARs); 100 μM ATL, 1 mM Ca2+, −70 mV vs −30 mV
  voltage dependence of block of NMDAR currents: depended on membrane voltage; also recorded: voltage-dependent
NMDA receptors (NMDARs); 200 µM ATL, 0.25 mM Ca2+, −70 mV
  type of open-channel block (trapping protocol): did not cause tail currents; also recorded: partial trapping
NMDA receptors (NMDARs); 200 µM ATL, washout delay 0.5 s, −70 mV, 0.25 mM Ca2+
  τs, slow rise time constant of test current (ATL unblock): 11 ± 3.2 s
NMDA receptors (NMDARs); 200 µM ATL, washout delay 1 s, −70 mV, 0.25 mM Ca2+
  τs, slow rise time constant of test current (ATL unblock): 13 ± 5.7 s
NMDA receptors (NMDARs); 200 µM ATL, washout delay 2 s, −70 mV, 0.25 mM Ca2+
  τs, slow rise time constant of test current (ATL unblock): 13.2 ± 4.0 s
NMDA receptors (NMDARs); 200 µM ATL, washout delay 4 s, −70 mV, 0.25 mM Ca2+
  τs, slow rise time constant of test current (ATL unblock): 15 ± 2.9 s
NMDA receptors (NMDARs); 0.25 mM Ca2+
  voltage shift giving an e-fold change of IC50: 50 mV
NMDA receptors (NMDARs); 0.25 mM Ca2+, Eq. 6
  δ, fraction of the membrane electric field (Woodhull model): 0.51
NMDA receptors (NMDARs); ATL 10 μM, −30 mV, [Ca2+] 0.25 mM
  fraction of ATL inhibition of NMDAR currents (1-Ib/Ic): 0.12 ± 0.05
NMDA receptors (NMDARs); ATL 10 μM, −30 mV, [Ca2+] 2 mM
  fraction of ATL inhibition of NMDAR currents (1-Ib/Ic): 0.30 ± 0.05
NMDA receptors (NMDARs); ATL 10 μM, −70 mV, [Ca2+] 0.25 mM
  fraction of ATL inhibition of NMDAR currents (1-Ib/Ic): 0.13 ± 0.06
NMDA receptors (NMDARs); ATL 10 μM, −70 mV, [Ca2+] 2 mM
  fraction of ATL inhibition of NMDAR currents (1-Ib/Ic): 0.42 ± 0.04
NMDA receptors (NMDARs); ATL 100 μM, −30 mV, [Ca2+] 0.25 mM
  fraction of ATL inhibition of NMDAR currents (1-Ib/Ic): 0.40 ± 0.07
NMDA receptors (NMDARs); ATL 100 μM, −30 mV, [Ca2+] 2 mM
  fraction of ATL inhibition of NMDAR currents (1-Ib/Ic): 0.35 ± 0.04
NMDA receptors (NMDARs); ATL 100 μM, −70 mV, [Ca2+] 0.25 mM
  fraction of ATL inhibition of NMDAR currents (1-Ib/Ic): 0.79 ± 0.05
NMDA receptors (NMDARs); ATL 100 μM, −70 mV, [Ca2+] 2 mM
  fraction of ATL inhibition of NMDAR currents (1-Ib/Ic): 0.79 ± 0.03
NMDA receptors (NMDARs); [Ca2+] 2–4 mM, read-out: IC50 values at physiological extracellular [Ca2+]
  IC50: 0.7 to 7 µM
NMDA receptors (NMDARs); co-application of agonists and 100 μM ATL, −70 mV, [Ca2+] 0.25 mM
  fraction of ATL inhibition of NMDAR currents (1-Ib/Ic): 0.85 ± 0.06
NMDA receptors (NMDARs); co-application of agonists and 100 μM ATL, −70 mV, [Ca2+] 2 mM
  fraction of ATL inhibition of NMDAR currents (1-Ib/Ic): 0.85 ± 0.05
NMDA receptors (NMDARs); extrapolated to 0 mM Ca2+, −70 mV, read-out: IC50 at [Ca2+] = 0, single exponential approximation
  IC50: 91 µM
NMDA receptors (NMDARs); extrapolated to 0 mV, 0.25 mM Ca2+, read-out: IC50 (0 mV), fit with Woodhull equation (Eq. 6)
  IC50: 220 µM
NMDA receptors (NMDARs); optimized by fitting all data with IC50(Vm,[Ca2+]) equation
  [Ca2+] shift giving an e-fold change of IC50 (b value), optimized: 690 µM
NMDA receptors (NMDARs); pre-application of 100 μM ATL, −70 mV, [Ca2+] 0.25 mM
  fraction of ATL inhibition of NMDAR currents (1-Ib/Ic): 0.12 ± 0.01
NMDA receptors (NMDARs); pre-application of 100 μM ATL, −70 mV, [Ca2+] 2 mM
  fraction of ATL inhibition of NMDAR currents (1-Ib/Ic): 0.17 ± 0.03
NMDA receptors (NMDARs); read-out: IC50 for ATL inhibition of NMDAR currents, −30 mV, 0.25 mM Ca2+
  IC50: 129 µM
NMDA receptors (NMDARs); read-out: IC50 for ATL inhibition of NMDAR currents, −70 mV, 0.25 mM Ca2+ in bathing solution, 100 μM NMDA + 30 μM Gly
  IC50: 63 ± 9.3 µM
NMDA receptors (NMDARs); read-out: IC50 for ATL inhibition of NMDAR currents, −70 mV, 0.5 mM Ca2+, 100 μM NMDA + 30 μM Gly
  IC50: 37.6 ± 7.7 µM
NMDA receptors (NMDARs); read-out: IC50 for ATL inhibition of NMDAR currents, −70 mV, 1 mM Ca2+, BAPTA-loaded neurons
  IC50: 106 ± 9.5 µM
NMDA receptors (NMDARs); read-out: IC50 for ATL inhibition of NMDAR currents, −70 mV, 1 mM Ca2+, control (intact) neurons
  IC50: 21.6 ± 8.7 µM
NMDA receptors (NMDARs); read-out: IC50 for ATL inhibition of NMDAR currents, −70 mV, 2 mM Ca2+
  IC50: 4.9 ± 1 µM
NMDA receptors (NMDARs); read-out: IC50 for ATL inhibition of NMDAR currents, −70 mV, 4 mM Ca2+
  IC50: 0.72 µM
NMDA receptors (NMDARs); read-out: IC50 for ATL inhibition of NMDAR currents, −100 mV, 0.25 mM Ca2+
  IC50: 34.2 ± 9.8 µM
NMDA receptors (NMDARs); single exponential fit of IC50 vs [Ca2+], −70 mV
  [Ca2+] shift giving an e-fold change of IC50 (b value): 630 µM
NMDA receptors (NMDARs); −70 mV, 0.25 mM Ca2+
  Hill coefficient h: 1.4 ± 0.1
NMDA receptors (NMDARs); −70 mV, 0.25 mM Ca2+, Eq. 3
  rate constant of binding (kon): 1600 ± 90 M⁻¹ s⁻¹
NMDA receptors (NMDARs); −70 mV, 0.25 mM Ca2+, Eq. 4
  rate constant of dissociation (koff): 0.204 ± 0.005 s⁻¹
NMDA receptors (NMDARs); −70 mV, 0.25 mM Ca2+, Eq. 5, read-out: apparent equilibrium dissociation constant (Kd = koff/kon)
  Kd: 128 ± 7.8 µM
NMDA receptors (NMDARs); −70 mV, 0.5 mM Ca2+
  Hill coefficient h: 1.5 ± 0.1
NMDA receptors (NMDARs); −70 mV, 1 mM Ca2+
  Hill coefficient h: 1.6 ± 0.5
NMDA receptors (NMDARs); −70 mV, 2 mM Ca2+
  Hill coefficient h: 1.2 ± 0.1
NMDA receptors (NMDARs); −70 mV, 4 mM Ca2+
  Hill coefficient h: 1.5 ± 0.2
[1]; blood plasma
  therapeutic window for ATL concentrations in the blood plasma: 0.3 to 1 µM
[1]; brain tissue
  ATL concentration in brain tissue: ≤ 10 µM

## Br.Br.NCCCCCNCC12CC3CC(CC(C3)C1)C2 [IEM-1754, N-(tricyclo[3.3.1.13,7]dec-1-ylmethyl)-1,5-pentanediamine dihydrobromide]
NMDA receptors (NMDARs); 10 μM IEM-1754, −70 mV, 2 mM vs 0.25 mM Ca2+
  Ca2+ dependence of block of NMDA-activated currents: resistant to a 4-fold increase of [Ca^2+]

## NC12CC3CC(CC(C3)C1)C2 [amantadine]
NMDARs
  δ, fraction of the membrane electric field: 0.72

## CNC1(c2ccccc2Cl)CCCCC1=O (centres unmarked) [ketamine]
NMDARs
  sensitivity of NMDAR block to external [Ca2+]: no sensitivity to changes in external [Ca^2+]
  δ, fraction of the membrane electric field: 0.55

## CC12CC3CC(C)(C1)CC(N)(C3)C2 [memantine]
NMDARs; by different estimates
  δ, fraction of the membrane electric field: 0.65–0.91
GluN1/GluN2A NMDARs
  effect on recovery from desensitization: slows the rate of recovery from desensitization of GluN1/GluN2A NMDARs
